Values joined by “and” are separate entries in the source; they are usually repeats but may differ in a detail not shown here. Identical values can stand only once. Like-named read-outs stand apart in the source and are kept apart here.
Tests used:
[1] = system: Cloudman S91 mouse melanoma cell line; assay: Melanin content of S91 cells after treatment with test compound; assay type: cell-based
Procedure, shortened: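 Mouse S91 melanoma cells seeded at 10^5 cells/35 mm dish in 10% calf serum and cultured with test compound 6 days at 37 °C, 5% CO2. Differentiation scored microscopically, trypsin detachment time recorded, cells counted; melanin measured by absorbance at 475 nm and expressed as pg melanin/cell.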

[2] = system: Normal human epidermal melanocytes (NHEMs); assay: Melanin induction in normal human epidermal melanocytes; assay type: cell-based
Method: Normal human epidermal melanocytes (NHEMs) were examined for induction of melanogenesis using cells and media from Clonetics Corporation (San Diego, Calif.). Cells were cultured exactly as specified by the supplier.

[3] = system: American short-haired guinea pigs; assay: Topical melanogenesis (pigmentation rating) in guinea pigs; assay type: in vivo, guinea pig; design: Pigmentation Rating / Pigmentation Rating Background Corrected: scale not given here; conditions: for relative melanogenesis rating (mean ±SE), scale 0-4: 25 μl twice per day for 5 days, rated two weeks after
Procedure, shortened: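 Agents applied topically to depilated back sites of American short-haired guinea pigs; PG, 2,3-BD and 1,2-cis-CPD at full strength, 3,3-M-1,2-BD at 4M in ethanol. Pigmentation subjectively rated two weeks after cessation of treatment, corrected for control-spot background, normalized to 1M and to 1,2-PG.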

[4] = system: Tyrosinase in normal human epidermal melanocytes (NHEM); assay: Tyrosinase in NHEM (in situ, cellular, extracellular particulate, media); assay type: cell-based; conditions: for Tyrosinase 200 g Partic, relative to controls (in parentheses) / Tyrosinase 17300 g Partic, relative to controls (in parentheses) / Tyrosinase Cellular, relative to controls (in parentheses) / Tyrosinase In Situ, relative to controls (in parentheses) / Tyrosinase Media, relative to controls (in parentheses): pair of replicates
Method: Tyrosinase was measured in normal human epidermal melanocytes (NHEM) using procedures identical to those described for S91 cells (Example 6), […], 1600×g, or 17,300×g for analysis of tyrosinase activity in the extracellular exported melanosomal particulate fraction, and in the resultant supernatant media fraction. In some cases (Table 11), tyrosinase was also measured by an in situ assay wherein radiolabelled tyrosine was added directly to freshly replaced media of NHEM for a period of 24 hrs following a 5 day treatment period (Abdel-Malek, et al., 1992, J. Cell. Physiol. 150:416-425). […] Both 5 mM 5-NBene-2,2-DM and 25 mM 3,3-M-1,2-BD induced more tyrosinase in each of these assays and fractions than did 1,2-PG. IBMX (3-isobutyl-1-methyl-xanthine) provided as a positive control, induced as much tyrosinase as 5 mM 5-NBene-2,2-DM in the in situ assay, but less in cellular, extracellular particulate and media fractions (Table 11).

[5] = system: tyrosinase activity in S91 mouse melanoma cells; assay: Induction of tyrosinase activity in S91 cells; conditions: for Tyrosinase dpm/hr 10^3 Cells / Tyrosinase dpm/hr ug Protein: 300 mM PG-1,2, 25 mM 3,3-M-1,2-BD, 50 mM 1,2-cs-CPD, 0.5 mM 2,3-Pyd, 0.1 mM IBMX, mean ±SE
Method: Compounds were examined for their ability to induce tyrosinase activity in S91 mouse melanoma cells. […] Following treatments, cells were trypsinized, counted by Coulter, pelleted by centrifugation at 1000×g, and analyzed for tyrosinase activity using modifications of previously described procedures (Pomerantz, S. H., 1966, J. Biol. Chem. 241:161-168; Jara, et al., 1988, Pigment Cell Res. 1: 332-339.). Briefly, cell pellets were solubilized by sonicating for 5 seconds in 600 ul 50 mM phosphate buffer pH 6.8 containing 0.5% Triton-X100, followed by vortexing, incubation on ice for 30 min, and then revortexing. From this, 200 ul aliquots were combined with 200 ul of reaction mixture containing either 75 uM tyrosine, 75 uM L-Dopa, and 2 uCi L-[3,5-^3H]Tyrosine in 50 mM NaPO4 pH 6.8 (L-Dopa+), or, 75 uM tyrosine, and 2 uCi L-[3,5-^3H]Tyrosine in 50 mM NaPO4 pH 6.8 (L-Dopa−) and incubated 1 hr at 37° C. Reactions were stopped by addition of 400 ul 10% activated charcoal in 0.1N HCl and incubation on ice for 15 min. This mixture was centrifuged at 17,300×g for 5 min, and 400 ul supernatant was then filtered through a 0.22 uM GV Durapore centifugal filter unit (Millipore) by centrifuging at 17,300×g for 5 min. Filtrate was added to 4 ml Fisher Plus scintillation fluid and counted on a Hewlett Packard scintillation counter. Tyrosinase activity was calculated as dpm/hr/ug protein and dpm/hr/10^3 cells. Each sample was analyzed with and without L-Dopa, a necessary cofactor for tyrosinase (Pomerantz, S. H., 1966, J. Biol. Chem. 241:161-168; McLane, et al., 1987, Biochem. Biophys. Res. Commun. 145:719-725). All reported tyrosinase values are exclusive of counts that occurred in buffer blanks and L-dopa negative aliquots. Protein was determined on aliquots of cell lysate, extracellular particulate lysate or media by the Bradford Coomassie Blue method (Bradford, 1967, Anal. Biochem. 72:248-254) using Bio-Rad Protein Assay Kit I.

[6] = No Penetration Enhancer, concentrations as E85
[7] = 5 day treatment, 300 mM 1,2-PG, 25 mM 3,3-M-1,2-BD, 5 mM 5-NBene-2,2-DM, 0.1 mM IBMX
[8] = 5 day treatment, concentrations as E130
[9] = Experiment 1, 5 mM 5-NBene-2,2-DM
[10] = Experiment 2, 5 mM 5-NBene-2,2-DM
[11] = Experiment 3, 5 mM 5-NBene-2,2-DM

CC(O)CO (stereo not drawn) [1,2-propanediol, 1,2-Propanediol (Propylene Glycol)]
Concentration Required for ≧2-fold Melanin Induction in S91 Cells [1]: 150 mM | pg Melanin/Cell ([1]; 50 mM): 15.6 pg Melanin/Cell | ug Melanin ([1]; 50 mM): 1.31 µg | pg Melanin/Cell ([1]; 150 mM): 24.0 pg Melanin/Cell | ug Melanin ([1]; 150 mM): 1.73 µg | pg Melanin/Cell ([1]; 1% (136 mM), 6 days): 9.4 pg Melanin/Cell | ug Melanin ([1]; 1% (136 mM), 6 days): 4.88 µg | pg Melanin/Cell ([1]; 2% (272 mM), 6 days): 12.5 pg Melanin/Cell | ug Melanin ([1]; 2% (272 mM), 6 days): 6.24 µg | pg Melanin/Cell ([1]; 3% (408 mM), 6 days): 20.2 pg Melanin/Cell | ug Melanin ([1]; 3% (408 mM), 6 days): 4.03 µg | pg Melanin/Cell ([1]; 4% (544 mM), 6 days): 40.1 pg Melanin/Cell | ug Melanin ([1]; 4% (544 mM), 6 days): 4.01 µg | pg Melanin/Cell ([1]; 5% (680 mM), 6 days): 28.9 pg Melanin/Cell | ug Melanin ([1]; 5% (680 mM), 6 days): 2.31 µg | Concentration Required for ≧1.5-fold Melanin Induction in NHEMs [2]: 150 mM | Pigmentation Rating Normalized to 1,2-PG [3, 6]: 1.0 ± 0.1 | Pigmentation Rating Normalized to 1M [3, 6]: 0.015 ± 0.002 | Pigmentation Rating Background Corrected ([3]; No Penetration Enhancer, corrected for Nair control, concentrations as E85): 0.21 ± 0.03 | Pigmentation Rating ([3]; No Penetration Enhancer, sites c and d, 13.61M 1,2-PG, 11.0M 2,3-M-2,3-BD, 11.3M 2-M-1,3-PG, 8.7M 1,2-cs-CPD, 4.0M 3,3-M-1,2-BD): 0.29 ± 0.09 | melanogenesis in guinea pigs (in words) ([3]; same relative body position): significant melanogenesis relative to depilitory treated controls | relative melanogenesis rating (mean ±SE), scale 0-4 ([3]; site a (head), PG 13.6M, 2,3-BD 10.95M, 1,2-cs-CPD 10.7M full strength, 3,3-M-1,2-BD 4M in ethanol): 1.04 ± 0.21 | relative melanogenesis rating (mean ±SE), scale 0-4 ([3]; site b, full strength solutions, listed as PG): 0.50 ± 0.25 and 0.83 ± 0.17 | relative melanogenesis rating (mean ±SE), scale 0-4 ([3]; site c, full strength, 3,3-M-1,2-BD 4M in ethanol): 0.25 ± 0.09^1 | relative melanogenesis rating (mean ±SE), scale 0-4 ([3]; site d (tail), full strength solutions): 0.33 ± 0.16^1 | pigmentation response versus control (Nair or 2% 2P treated) spots ([3]; sites towards tail, 13.61M 1,2-PG, 10.6M 1,2-PG/2% 2P, 11M 2,3-dimethyl-2,3-butanediol): not significantly different from control | Tyrosinase In Situ [4, 7]: 17.2 dpm/hr/10^3 Cells and 16.8 dpm/hr/10^3 Cells | Tyrosinase Cellular ([4]; 5 day treatment, concentrations as E130, listed as 1,2-PG): 10875 dpm/hr/10^3 Cells and 10247 dpm/hr/10^3 Cells | Tyrosinase Media ([4]; Post 17300 X g, 5 day treatment, concentrations as E130, listed as 1,2-PG): 2123 dpm/hr/10^3 Cells and 1864 dpm/hr/10^3 Cells | Tyrosinase 200 g Partic, relative to controls (in parentheses) ([4]; concentrations as E130): (1.98X) | Tyrosinase 17300 g Partic, relative to controls (in parentheses) ([4]; concentrations as E130): (1.50X) | Tyrosinase Cellular, relative to controls (in parentheses) ([4]; concentrations as E130): (1.03) X | Tyrosinase In Situ, relative to controls (in parentheses) ([4]; concentrations as E130): (1.07X) | Tyrosinase Media, relative to controls (in parentheses) ([4]; concentrations as E130): (1.28X) | Tyrosinase dpm/hr 10^3 Cells ([5]; 5 mM 5-NBene-2,2-DM): 292 ± 104 dpm/hr/10^3 Cells | Tyrosinase dpm/hr ug Protein ([5]; 5 mM 5-NBene-2,2-DM): 1003 ± 370 dpm/hr/ug Protein

OCC1(CO)CC2C=CC1C2 (stereo not drawn) [5-NBene-2,2-DM, 5-norbornene-2,2-dimethanol]
Concentration Required for ≧2-fold Melanin Induction in S91 Cells [1]: 5 mM | Concentration Required for ≧1.5-fold Melanin Induction in NHEMs ([2]; listed as 5-Norbornene-2,2-Dimethanol): 5 mM | Concentration Required for ≧1.5-fold Melanin Induction in NHEMs ([2]; listed as 5-norbornene-2,2-dimethanol): ≤ 5 mM | Pigmentation Ratings (X ± SE; n = 6; scale 0 to +4) ([3]; spot a (anterior), 8.7M 1,2-cis-CPD in 20% ETOH, 1M 5-NBene-2,2-DM in 8.5 M propylene glycol, 2% 2-pyrrolidone, 20% ETOH, 1M 2,3-cs/ex PD in 50% ETOH): 1.75 ± 0.43 | Pigmentation Ratings (X ± SE; n = 6; scale 0 to +4) ([3]; spot b, formulations as E220): 1.25 ± 0.21 | Pigmentation Ratings (X ± SE; n = 6; scale 0 to +4) ([3]; spot c, formulations as E220): 0.83 ± 0.15 | Pigmentation Ratings (X ± SE; n = 6; scale 0 to +4) ([3]; spot d (posterior), formulations as E220): 0.29 ± 0.08 | Tyrosinase In Situ [4, 7]: 24.5 dpm/hr/10^3 Cells and 25.4 dpm/hr/10^3 Cells | Tyrosinase 200 g Partic [4, 8]: 6447 dpm/hr/10^3 Cells and 6291 dpm/hr/10^3 Cells | Tyrosinase Cellular [4, 8]: 13838 dpm/hr/10^3 Cells and 14716 dpm/hr/10^3 Cells | Tyrosinase Cellular ([4]; Black-Neonatal-NHEM, 1 mM): 10679 dpm/hr/10^3 cells | Tyrosinase Cellular relative to Control ([4]; Black-Neonatal-NHEM, 1 mM): 1.08 X | Tyrosinase In Situ ([4]; Black-Neonatal-NHEM, 1 mM): 13.9 dpm/hr/10^3 cells | Tyrosinase In Situ relative to Control ([4]; Black-Neonatal-NHEM, 1 mM): 1.11 X | Tyrosinase Media relative to Control ([4]; Black-Neonatal-NHEM, 1 mM): 2.41 X | Tyrosinase Media ([4]; Black-Neonatal-NHEM, 1 mM, media from 1 day treatment period): 26.8 dpm/hr/10^3 cells | Tyrosinase Cellular ([4]; Black-Neonatal-NHEM, 5 mM): 15398 dpm/hr/10^3 cells | Tyrosinase Cellular relative to Control ([4]; Black-Neonatal-NHEM, 5 mM): 1.56 X | Tyrosinase In Situ ([4]; Black-Neonatal-NHEM, 5 mM): 14.1 dpm/hr/10^3 cells | Tyrosinase In Situ relative to Control ([4]; Black-Neonatal-NHEM, 5 mM): 1.13 X | Tyrosinase Media relative to Control ([4]; Black-Neonatal-NHEM, 5 mM): 2.99 X | Tyrosinase Media ([4]; Black-Neonatal-NHEM, 5 mM, media from 1 day treatment period): 33.2 dpm/hr/10^3 cells | Tyrosinase 17300 g Partic ([4]; Post 200 X g, 5 day treatment, concentrations as E130): 493 dpm/hr/10^3 Cells and 473 dpm/hr/10^3 Cells | Tyrosinase Media ([4]; Post 17300 X g, 5 day treatment, concentrations as E130): 4164 dpm/hr/10^3 Cells and 4639 dpm/hr/10^3 Cells | Tyrosinase Cellular ([4]; White-Adult-NHEM, 1 mM): 12740 dpm/hr/10^3 cells | Tyrosinase Cellular relative to Control ([4]; White-Adult-NHEM, 1 mM): 0.91 X | Tyrosinase In Situ ([4]; White-Adult-NHEM, 1 mM): 6.27 dpm/hr/10^3 cells | Tyrosinase In Situ relative to Control ([4]; White-Adult-NHEM, 1 mM): 1.13 X | Tyrosinase Media relative to Control ([4]; White-Adult-NHEM, 1 mM): 0.82 X | Tyrosinase Media ([4]; White-Adult-NHEM, 1 mM, media from 1 day treatment period): 29.9 dpm/hr/10^3 cells | Tyrosinase Cellular ([4]; White-Adult-NHEM, 5 mM): 18467 dpm/hr/10^3 cells | Tyrosinase Cellular relative to Control ([4]; White-Adult-NHEM, 5 mM): 1.32 X | Tyrosinase In Situ ([4]; White-Adult-NHEM, 5 mM): 5.81 dpm/hr/10^3 cells | Tyrosinase In Situ relative to Control ([4]; White-Adult-NHEM, 5 mM): 1.04 X | Tyrosinase Media relative to Control ([4]; White-Adult-NHEM, 5 mM): 1.46 X | Tyrosinase Media ([4]; White-Adult-NHEM, 5 mM, media from 1 day treatment period): 53.1 dpm/hr/10^3 cells | Tyrosinase 200 g Partic, relative to controls (in parentheses) ([4]; concentrations as E130): (18.6X) | Tyrosinase 17300 g Partic, relative to controls (in parentheses) ([4]; concentrations as E130): (4.22X) | Tyrosinase Cellular, relative to controls (in parentheses) ([4]; concentrations as E130): (1.40X) | Tyrosinase In Situ, relative to controls (in parentheses) ([4]; concentrations as E130): (1.57X) | Tyrosinase Media, relative to controls (in parentheses) ([4]; concentrations as E130): (2.83X) | Fold Induction of Tyrosinase Relative to Controls ([5]; 0.5 mM (Table 16)): 2.8X | Fold Induction of Tyrosinase Relative to Controls ([5]; 1 mM (Table 15)): 4.0X | Fold Induction of Tyrosinase Relative to Controls ([5]; 1 mM (Table 16)): 3.6X | Fold Induction of Tyrosinase Relative to Controls ([5]; 2 mM (Table 15)): 12.9X | Fold Induction of Tyrosinase Relative to Controls ([5]; 2.5 mM (Table 16)): 14.5X | Tyrosinase Relative to Control ([5]; 5 mM 5-NBene-2,2-DM): 8.2X | Tyrosinase dpm/hr/ug Protein ([5]; 5 mM 5-NBene-2,2-DM): 3273 dpm/hr/ug Protein | Tyrosinase dpm/hr/10^3 Cells, Avg. ([5]; 5 mM 5-NBene-2,2-DM, average of two): 4381 dpm/hr/10^3 Cells | Tyrosinase dpm/hr/10^3 Cells ([5]; 5 mM 5-NBene-2,2-DM, single replicates): 4515 dpm/hr/10^3 Cells and 4247 dpm/hr/10^3 Cells | Fold Induction of Tyrosinase Relative to Controls ([5]; 5 mM (Table 15)): 41.9X | Fold Induction of Tyrosinase Relative to Controls ([5]; 5 mM (Table 16)): 61.6X | Tyrosinase dpm/hr 10^3 Cells ([5]; 5 mM 5-NBene-2,2-DM): 707 ± 54 dpm/hr/10^3 Cells | Tyrosinase dpm/hr ug Protein ([5]; 5 mM 5-NBene-2,2-DM): 1643 ± 105 dpm/hr/ug Protein | % of 5-NBene-2,2-DM [5, 9]: 100% | Tyrosinase induction dpm/hr/10^3 cells [5, 9]: 5018 ± 415^1 dpm/hr/10^3 cells | % of 5-NBene-2,2-DM [5, 10]: 100% | Tyrosinase induction dpm/hr/10^3 cells [5, 10]: 5640 ± 323 dpm/hr/10^3 cells | % of 5-NBene-2,2-DM [5, 11]: 100% | Tyrosinase induction dpm/hr/10^3 cells [5, 11]: 6388 ± 460^1 dpm/hr/10^3 cells
